{"source": "the supplement of paper PMC10307832", "experiment_in_all_cases": "relative viability (nuclei count vs DMSO), 5 days (fraction); higher = more cells survive", "key": {"201T": {"tested_on": "201T", "summary_of_the_method": "(§1)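 Values are medians from duplicate plates. Each reflects relative viability, defined as the nuclei count of treated wells over that of vehicle wells. Lung cancer cell lines in 1536-well plates were pin-tool dosed one day after seeding with one drug alone or with a fixed anchor-drug dose plus five library-drug doses (not always all listed) in √10 steps, then fixed, stained and imaged at 4× after 5 days.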"}, "BEN": {"tested_on": "BEN", "summary_of_the_method": "as §1"}, "COR-L 105": {"tested_on": "COR-L 105", "summary_of_the_method": "as §1"}, "EKVX": {"tested_on": "EKVX", "summary_of_the_method": "as §1"}, "EPLC-272H": {"tested_on": "EPLC-272H", "summary_of_the_method": "as §1"}, "H3255": {"tested_on": "H3255", "summary_of_the_method": "as §1"}, "HCC-44": {"tested_on": "HCC-44", "summary_of_the_method": "as §1"}, "HCC-827": {"tested_on": "HCC-827", "summary_of_the_method": "as §1"}, "HOP-62": {"tested_on": "HOP-62", "summary_of_the_method": "as §1"}, "LCLC-97TM1": {"tested_on": "LCLC-97TM1", "summary_of_the_method": "as §1"}, "LOU-NH91": {"tested_on": "LOU-NH91", "summary_of_the_method": "as §1"}, "LU99A": {"tested_on": "LU99A", "summary_of_the_method": "as §1"}, "NCI-H1437": {"tested_on": "NCI-H1437", "summary_of_the_method": "as §1"}, "NCI-H1666": {"tested_on": "NCI-H1666", "summary_of_the_method": "as §1"}, "NCI-H1975": {"tested_on": "NCI-H1975", "summary_of_the_method": "as §1"}, "NCI-H2085": {"tested_on": "NCI-H2085", "summary_of_the_method": "as §1"}, "NCI-H2087": {"tested_on": "NCI-H2087", "summary_of_the_method": "as §1"}, "NCI-H647": {"tested_on": "NCI-H647", "summary_of_the_method": "as §1"}, "PC-3 [JPC-3]": {"tested_on": "PC-3 [JPC-3]", "summary_of_the_method": "as §1"}, "SW 1573": {"tested_on": "SW 1573", "summary_of_the_method": "as §1"}}}
{"smiles": "Oc1nc(-c2ccc(C(F)(F)F)cc2)nc2c1CSCC2", "note": "[XAV939] + CC(C)C[C@H](NC(=O)[C@H](Cc1ccccc1)NC(=O)c1cnccn1)B(O)O [Bortezomib] (partner 0.002 µM)", "values": [{"measurement": "relative viability", "setting": "201T; first compound 0.08 µM", "value": 1.12}, {"measurement": "relative viability", "setting": "201T; first compound 0.253 µM", "value": 0.981}, {"measurement": "relative viability", "setting": "201T; first compound 0.8 µM", "value": 1.08}, {"measurement": "relative viability", "setting": "201T; first compound 2.53 µM", "value": 0.979}, {"measurement": "relative viability", "setting": "BEN; first compound 0.08 µM", "value": 0.709}, {"measurement": "relative viability", "setting": "BEN; first compound 0.253 µM", "value": 0.733}, {"measurement": "relative viability", "setting": "BEN; first compound 0.8 µM", "value": 0.559}, {"measurement": "relative viability", "setting": "COR-L 105; first compound 0.08 µM", "value": 0.853}, {"measurement": "relative viability", "setting": "COR-L 105; first compound 0.253 µM", "value": 0.755}, {"measurement": "relative viability", "setting": "COR-L 105; first compound 0.8 µM", "value": 0.618}, {"measurement": "relative viability", "setting": "COR-L 105; first compound 2.53 µM", "value": 0.567}, {"measurement": "relative viability", "setting": "EKVX; first compound 0.08 µM", "value": 1.12}, {"measurement": "relative viability", "setting": "EKVX; first compound 0.253 µM", "value": 0.882}, {"measurement": "relative viability", "setting": "EKVX; first compound 0.8 µM", "value": 0.773}, {"measurement": "relative viability", "setting": "EKVX; first compound 2.53 µM", "value": 0.573}, {"measurement": "relative viability", "setting": "EPLC-272H; first compound 0.08 µM", "value": 1.05}, {"measurement": "relative viability", "setting": "EPLC-272H; first compound 0.253 µM", "value": 0.816}, {"measurement": "relative viability", "setting": "EPLC-272H; first compound 0.8 µM", "value": 1.02}, {"measurement": "relative viability", "setting": "EPLC-272H; first compound 2.53 µM", "value": 0.91}, {"measurement": "relative viability", "setting": "H3255; first compound 0.08 µM", "value": 1.05}, {"measurement": "relative viability", "setting": "H3255; first compound 0.253 µM", "value": 0.716}, {"measurement": "relative viability", "setting": "H3255; first compound 0.8 µM", "value": 0.62}, {"measurement": "relative viability", "setting": "H3255; first compound 2.53 µM", "value": 0.853}, {"measurement": "relative viability", "setting": "HCC-44; first compound 0.08 µM", "value": 0.909}, {"measurement": "relative viability", "setting": "HCC-44; first compound 0.253 µM", "value": 0.809}, {"measurement": "relative viability", "setting": "HCC-44; first compound 0.8 µM", "value": 0.854}, {"measurement": "relative viability", "setting": "HCC-44; first compound 2.53 µM", "value": 0.824}, {"measurement": "relative viability", "setting": "HCC-827; first compound 0.08 µM", "value": 1.03}, {"measurement": "relative viability", "setting": "HCC-827; first compound 0.253 µM", "value": 0.868}, {"measurement": "relative viability", "setting": "HCC-827; first compound 0.8 µM", "value": 1.07}, {"measurement": "relative viability", "setting": "HCC-827; first compound 2.53 µM", "value": 1.09}, {"measurement": "relative viability", "setting": "HOP-62; first compound 0.08 µM", "value": 1.19}, {"measurement": "relative viability", "setting": "HOP-62; first compound 0.253 µM", "value": 0.73}, {"measurement": "relative viability", "setting": "HOP-62; first compound 0.8 µM", "value": 0.988}, {"measurement": "relative viability", "setting": "HOP-62; first compound 2.53 µM", "value": 0.352}, {"measurement": "relative viability", "setting": "LCLC-97TM1; first compound 0.08 µM", "value": 0.589}, {"measurement": "relative viability", "setting": "LCLC-97TM1; first compound 0.253 µM", "value": 0.517}, {"measurement": "relative viability", "setting": "LCLC-97TM1; first compound 0.8 µM", "value": 0.472}, {"measurement": "relative viability", "setting": "LCLC-97TM1; first compound 2.53 µM", "value": 0.505}, {"measurement": "relative viability", "setting": "LOU-NH91; first compound 0.08 µM", "value": 0.438}, {"measurement": "relative viability", "setting": "LOU-NH91; first compound 0.253 µM", "value": 0.464}, {"measurement": "relative viability", "setting": "LOU-NH91; first compound 0.8 µM", "value": 0.49}, {"measurement": "relative viability", "setting": "LOU-NH91; first compound 2.53 µM", "value": 0.415}, {"measurement": "relative viability", "setting": "LU99A; first compound 0.08 µM", "value": 1.26}, {"measurement": "relative viability", "setting": "LU99A; first compound 0.253 µM", "value": 0.714}, {"measurement": "relative viability", "setting": "LU99A; first compound 0.8 µM", "value": 1.01}, {"measurement": "relative viability", "setting": "LU99A; first compound 2.53 µM", "value": 1.19}, {"measurement": "relative viability", "setting": "NCI-H1437; first compound 0.08 µM", "value": 0.641}, {"measurement": "relative viability", "setting": "NCI-H1437; first compound 0.253 µM", "value": 0.548}, {"measurement": "relative viability", "setting": "NCI-H1437; first compound 0.8 µM", "value": 0.512}, {"measurement": "relative viability", "setting": "NCI-H1437; first compound 2.53 µM", "value": 0.376}, {"measurement": "relative viability", "setting": "NCI-H1666; first compound 0.08 µM", "value": 0.813}, {"measurement": "relative viability", "setting": "NCI-H1666; first compound 0.253 µM", "value": 0.611}, {"measurement": "relative viability", "setting": "NCI-H1666; first compound 0.8 µM", "value": 0.422}, {"measurement": "relative viability", "setting": "NCI-H1666; first compound 2.53 µM", "value": 0.5}, {"measurement": "relative viability", "setting": "NCI-H1975; first compound 0.08 µM", "value": 0.305}, {"measurement": "relative viability", "setting": "NCI-H1975; first compound 0.253 µM", "value": 0.352}, {"measurement": "relative viability", "setting": "NCI-H1975; first compound 0.8 µM", "value": 0.346}, {"measurement": "relative viability", "setting": "NCI-H1975; first compound 2.53 µM", "value": 0.349}, {"measurement": "relative viability", "setting": "NCI-H2085; first compound 0.08 µM", "value": 1.02}, {"measurement": "relative viability", "setting": "NCI-H2085; first compound 0.253 µM", "value": 1.03}, {"measurement": "relative viability", "setting": "NCI-H2085; first compound 0.8 µM", "value": 0.975}, {"measurement": "relative viability", "setting": "NCI-H2085; first compound 2.53 µM", "value": 0.992}, {"measurement": "relative viability", "setting": "NCI-H2087; first compound 0.08 µM", "value": 0.864}, {"measurement": "relative viability", "setting": "NCI-H2087; first compound 0.253 µM", "value": 0.595}, {"measurement": "relative viability", "setting": "NCI-H2087; first compound 0.8 µM", "value": 0.938}, {"measurement": "relative viability", "setting": "NCI-H2087; first compound 2.53 µM", "value": 0.763}, {"measurement": "relative viability", "setting": "NCI-H647; first compound 0.08 µM", "value": 1.16}, {"measurement": "relative viability", "setting": "NCI-H647; first compound 0.253 µM", "value": 0.747}, {"measurement": "relative viability", "setting": "NCI-H647; first compound 0.8 µM", "value": 0.81}, {"measurement": "relative viability", "setting": "NCI-H647; first compound 2.53 µM", "value": 0.988}, {"measurement": "relative viability", "setting": "PC-3 [JPC-3]; first compound 0.08 µM", "value": 0.839}, {"measurement": "relative viability", "setting": "PC-3 [JPC-3]; first compound 0.253 µM", "value": 0.722}, {"measurement": "relative viability", "setting": "PC-3 [JPC-3]; first compound 0.8 µM", "value": 0.831}, {"measurement": "relative viability", "setting": "PC-3 [JPC-3]; first compound 2.53 µM", "value": 0.755}, {"measurement": "relative viability", "setting": "SW 1573; first compound 0.08 µM", "value": 0.994}, {"measurement": "relative viability", "setting": "SW 1573; first compound 0.253 µM", "value": 1.01}, {"measurement": "relative viability", "setting": "SW 1573; first compound 0.8 µM", "value": 1.1}, {"measurement": "relative viability", "setting": "SW 1573; first compound 2.53 µM", "value": 0.676}]}
